Laboratory results as given in patent US20140057798A1, “PREDICTION OF DRUG SENSITIVITY OF LUNG TUMORS BASED ON MOLECULAR GENETIC SIGNATURES” (NESTEC S.A., priority 2011, published 2014).
Entries after “also recorded” stand apart in the source; their conditions may differ. Where two headings read alike, the source gives them in different places.

Experiments:
H1975 cells = test: Inhibition of tumor cell line growth (CellTiter-Glo), H1975; format: cell-based, human
H1993 cells [1] = test: Inhibition of tumor cell line growth (CellTiter-Glo), H1993; format: cell-based, human; settings: H1993, single inhibitor 0.01-10 μM, 5% FBS, 48 hours
A549 cells [2] = test: Inhibition of tumor cell line growth (CellTiter-Glo), A549; format: cell-based, human; settings: A549, single inhibitor 0.01-10 μM, 5% FBS, 48 hours
H460 cells [3] = test: Inhibition of tumor cell line growth (CellTiter-Glo), H460; format: cell-based, human; settings: H460, single inhibitor 0.01-10 μM, 5% FBS, 48 hours
[4] = test system: eight human lung tumor cell lines; test: Inhibition of tumor cell growth, panel of lung tumor cell lines; format: cell-based
H1650 cells = test: Inhibition of tumor cell line growth (CellTiter-Glo), H1650; format: cell-based, human; settings: H1650, single inhibitor 0.01-10 μM, 5% FBS, 48 hours
[5] = test system: IGF-1R pathway in A549 cells; test: Inhibition of activated signaling pathways by kinase inhibitors (CEER assay), A549; format: cell-based, human; settings: A549, serum-starved overnight, 4-hour treatment, CEER assay (FIG. 2)
From the text: (§1) The principal of the CEER™ assay is based on the capture of the target protein by a target-specific antibody printed in two dilutions on the surface of a microarray slide. […] Formation of this complex is initiated by the binding of the first detecting antibody, which is coupled to glucose oxidase (GO), to an epitope on the captured target protein that is different from the epitope recognized by the capture antibody, followed by the binding of a second detecting antibody, which is coupled to horseradish peroxidase (HRP), to a phosphorylated tyrosine (p-Tyr) residue on the target protein. […]
(§2) The capture antibodies against mouse IgG, human epidermal growth factor receptor 1 (Her1), human epidermal growth factor receptor 2 (Her2), human epidermal growth factor receptor 3 (Her3), human hepatocyte growth factor receptor (cMET), human insulin-like growth factor-1 receptor (IGF1R), human stem cell growth factor receptor (cKit), human phosphatidylinositol-3-kinase (PI3K), human Src homology 2 domain-containing protein (SHC) and human cytokeratin (CK), were printed in this order in 10 rows from top to bottom in each slide. […] The relative fluorescence value of the respective reagent blank was subtracted from each sample to give a relative fluorescence unit (RFU) according the number of cells' extract.

[6] = test system: IGF-1R pathway in H460 cells; test: Inhibition of activated signaling pathways by kinase inhibitors (CEER assay), H460; format: cell-based, human; settings: H460, serum-starved overnight, 4-hour treatment, CEER assay (FIG. 2)
From the text: as §1, §2

HCC827 cells = test: Inhibition of tumor cell line growth (CellTiter-Glo), HCC827; format: cell-based, human
H358 cells [7] = test: Inhibition of tumor cell line growth (CellTiter-Glo), H358; format: cell-based, human; settings: H358, single inhibitor 0.01-10 μM, 5% FBS, 48 hours
H358 cells [8] = test: Anchorage-independent growth inhibition (soft agarose colonies), H358; format: cell-based, human; settings: H358, 0.1 μM and 1 μM, two weeks, agar
Method: (§3) The plates were kept at 4° C. for 2 hr to solidify the cell-containing layer. The plates were then incubated at 37° C. in a CO2 incubator with 2 mL of medium containing various concentrations of the kinase inhibitor. The medium with the inhibitor was changed every 3 days.

A549 cells [9] = test: Anchorage-independent growth inhibition (soft agarose colonies), A549; format: cell-based, human; settings: A549, 0.1 μM and 1 μM, two weeks, agar
Method: as §3

H460 cells [10] = test: Anchorage-independent growth inhibition (soft agarose colonies), H460; format: cell-based, human; settings: H460, 0.1 μM and 1 μM, two weeks, agar
Method: as §3

H1734 cells [11] = test: Inhibition of tumor cell line growth (CellTiter-Glo), H1734; settings: H1734, single inhibitor 0.01-10 μM, 5% FBS, 48 hours
[12] = test system: Her1 and/or Her2 pathway in H1734 cells; settings: H1734, serum-starved overnight, 4-hour treatment, CEER assay (FIG. 2)
From the text: as §1, §2

H1734 cells [13] = test: Anchorage-independent growth inhibition (soft agarose colonies), H1734; format: cell-based, human; settings: H1734, 0.1 μM and 1 μM, two weeks, agar
[14] = test system: c-Met pathway in H1993 cells; test: Inhibition of activated signaling pathways by kinase inhibitors (CEER assay), H1993 c-Met; format: cell-based, human; settings: H1993, serum-starved overnight, 4-hour treatment, CEER assay (FIG. 2)
From the text: as §1, §2

H1993 cells [15] = test: Anchorage-independent growth inhibition (soft agarose colonies), H1993; format: cell-based, human; settings: H1993, 0.1 μM and 1 μM, two weeks, agar
Method: as §3

[16] = H1975, single inhibitor 0.01-10 μM, 5% FBS, 48 hours

Structure (SMILES) | inhibition of cell proliferation (H1975 cells; [16]) | inhibition of cell proliferation (H1993 cells [1]) | inhibition of cell proliferation (A549 cells [2]) | inhibition of cell proliferation (H460 cells [3]) | inhibition of cell proliferation (H358 cells [7]) | also measured
Cn1c(=O)n(-c2ccc(C(C)(C)C#N)cc2)c2c3cc(-c4cnc5ccccc5c4)ccc3ncc21 [BEZ-235] | weakly inhibited | only weakly | inhibited; also recorded: sensitive | inhibited; also recorded: sensitive | – | inhibition of tumor cell growth across the cell lines tested [4]: effectively inhibited tumor cell growth in most of the cell lines tested, except the H1993 and H1650 cells
CN(C)C/C=C/C(=O)Nc1cc2c(Nc3ccc(F)c(Cl)c3)ncnc2cc1O[C@H]1CCOC1 [BIBW-2992] | – | only weakly | – | – | – | inhibition of cell proliferation (H1975 cells): potently inhibit the growth; also recorded: moderately inhibited; inhibition of cell proliferation (H1650 cells): inhibited
Cc1cc(N2CCOCC2)cc2[nH]c(-c3c(NC[C@@H](O)c4cccc(Cl)c4)cc[nH]c3=O)nc12 [BMS-536924] | able to inhibit the growth | – | inhibited | weakly inhibited | inhibit its proliferation more effectively | blocking of activated IGF-1R pathway [5]: able to block; blocking of activated IGF-1R pathway [6]: able to block; inhibition of cell proliferation (HCC827 cells; HCC827, single inhibitor 0.01-10 μM, 5% FBS, 48 hours): inhibition of proliferation; reduction of cell colony size, anchorage-independent growth (H358 cells [8]): reduce cell colony size formation dose-dependently; reduction of cell colony size, anchorage-independent growth (A549 cells [9]): reduce cell colony size formation dose-dependently; reduction of cell colony size, anchorage-independent growth (H460 cells [10]): reduce cell colony size formation dose-dependently
C#Cc1cccc(Nc2ncnc3cc(OCCOC)c(OCCOC)cc23)c1 [Erlotinib] | inhibited | – | – | – | – | inhibition of cell proliferation (H1734 cells [11]): inhibited
CS(=O)(=O)CCNCc1ccc(-c2ccc3ncnc(Nc4ccc(OCc5cccc(F)c5)c(Cl)c4)c3c2)o1 [Lapatinib] | resistant | – | – | – | weakly blocked | inhibition of cell proliferation (HCC827 cells): able to inhibit the proliferation; blocking of Her1 and/or Her2 pathway activation [12]: activation blocked
O=C(NOC[C@H](O)CO)c1ccc(F)c(F)c1Nc1ccc(I)cc1F [PD-325901] | weakly inhibited | able to block the proliferation | not and weakly | not | not | proliferation of cell colony size, anchorage-independent growth (H1734 cells [13]): potently blocked; inhibition of cell proliferation (H1734 cells [11]): effective in blocking the growth
C[C@@H](Oc1cc(-c2cnn(C3CCNCC3)c2)cnc1N)c1c(Cl)ccc(F)c1Cl [PF-2341066] | – | block its proliferation very effectively | – | – | not inhibited | blocking of c-Met pathway activation [14]: blocked; large colony formation, anchorage-independent growth (H1993 cells [15]): inhibited
